The text below walks through data of PubChem BioAssay (NCI).

“And” between values parts separate entries of the source, which are not always exact repeats. Equal entries are not always repeated.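 96-well plates; 48 h exposure; 5 concentrations. Endpoints by linear interpolation between flanking doses. Not reached: highest tested concentration assigned. GI50 is the concentration that inhibits growth by half. At the TGI there is no net growth.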

Holding throughout (test): NCI-60 cell line screen, 48 h
Assay [1] concerns COLO 205 colon.
Assay [2] has as its system NCI-H226 lung.
The subject of assay [3] is U251 CNS.
The subject of assay [4] is HCC-2998 colon.
Assay [5] has as its system SK-MEL-28 melanoma.
Assay [6] has as its system UACC-257 melanoma.
Assay [7] deals with OVCAR-3 ovarian.
Assay [8] has as its system EKVX NSCLC.
The test system of assay [9] is NCI-H460 lung.
In assay [10] the test system is CCRF-CEM leukemia.

Turning to `O=C(c1ccc(OCCN2CCCCC2)cc1)c1c(-c2ccc(O)cc2)sc2cc(O)ccc12`, the GI50 in assay [1] was 12.3 µM and 9.73 µM; in assay [2], 15 µM and 17 µM; in assay [3], 5.53 µM and 7.84 µM; in assay [4], 6.37 µM and 19.1 µM; in assay [5], 12.3 µM and 6.65 µM; in [6], 2.82 µM and 3.52 µM. In addition, the GI50 is 10 µM and 14 µM in [7]; 9.34 µM and 12.8 µM in [8]; 4.29 µM and 7.96 µM in assay [9]; 5.55 µM and 1.85 µM in assay [10]. The TGI in assay [1] is 24.7 µM and 40.6 µM; in assay [2] it was 29.6 µM and 34.6 µM; in assay [3] it was 19.6 µM and 21.1 µM; in assay [4], 19.2 µM and 36.8 µM; in assay [5], 25.1 µM and 23.6 µM; in assay [6] it was 10.8 µM and 10.5 µM. Also, the TGI in [7] is 21.7 µM and 31.5 µM; in [8], 25.7 µM and 33.9 µM; in assay [9] it was 17.1 µM and 25.9 µM; in assay [10], 43.9 µM and > 29.8 µM.

`O=C(CSc1nc2ccccc2nc1-c1ccccc1)Nc1ccc(Cl)cc1`: the GI50 was above 100 µM in assay [1]; 16.7 µM in assay [2]; 23.6 µM in [3]; 46.4 µM in assay [4]; 60.8 µM in assay [5]; above 100 µM in assay [6]. Besides, the GI50 in assay [7] is 13.1 µM; in assay [8], 49.5 µM; in assay [9] it was 11.8 µM; in assay [10], above 100 µM. For the same molecule, the TGI was above 100 µM in [1]; 51.1 µM in assay [2]; 67.7 µM in assay [3]; above 100 µM in assay [4]; above 100 µM in [5]; above 100 µM in assay [6]. In addition, the TGI was 40.3 µM in assay [7], above 100 µM in [8], 36.8 µM in [9] and above 100 µM in [10].

Turning to `CCOC(=O)Cc1nc2ccccc2s1`, the TGI in assay [1] is above 100 µM; in assay [2] it was 49.2 µM; in [3], 30.7 µM; in assay [4], above 100 µM; in assay [5] it was 28.2 µM; in [6], 33.2 µM. Further, the TGI was above 10 µM in assay [7], above 100 µM in assay [8], 39.6 µM in assay [9] and 72.8 µM in [10].

As to `Cc1cc(C(=O)Nc2nc3cccc(Cl)c3n2[C@@H]2CCCCN(C(=O)/C=C/CN(C)C)C2)ccn1`, the GI50 was 7.69 µM in assay [1]; 16.3 µM in assay [2]; 11.2 µM in assay [3]; 15.6 µM in [4]; 12.8 µM in assay [5]; 18.8 µM in assay [6]. Besides, the GI50 in assay [7] was 4.08 µM; in assay [8], 0.518 µM; in assay [9] it was 8.7 µM; in assay [10], 12.5 µM. Besides, the TGI in assay [1] amounted to 22.4 µM; in assay [2], 32.1 µM; in [3], 26 µM; in assay [4], 30.9 µM; in assay [5], 27 µM; in [6], 34.1 µM. Moreover, the TGI in assay [7] was determined as 18.4 µM; in [8], 18.7 µM; in [9], 23.1 µM; in assay [10], 56.2 µM.

Take `Cc1nnc(N=Nc2c(O)[nH]c3c(Cl)cc(Cl)cc23)n1N`: the TGI in assay [1], in assay [2], in assay [3], in [4], in assay [5] and in assay [6] was above 100 µM in each case. For the same molecule, the TGI in [7], in [8], in [9] and in assay [10] was above 100 µM throughout.

Regarding `CCNCCC1(CC)C(=O)NC(=O)NC1=O`, the TGI in assay [1], in assay [2], in [3], in assay [4], in assay [5] and in assay [6] was above 100 µM each time. In addition, the TGI in assay [7], in assay [8], in assay [9] and in assay [10] was above 100 µM each time. The GI50 in [4] and in assay [10] was above 100 µM each time.

In the case of `COC(=O)[C@H]1C(=O)[C@@]2(C)[C@H]([C@H](OC(=O)c3ccccc3)[C@]3(O)C[C@H](OC(=O)[C@H](O)[C@@H](NC(=O)c4ccc(F)cc4)c4ccccc4)C(C)=C1C3(C)C)[C@]1(OC(C)=O)CO[C@@H]1C[C@@H]2O`, the GI50 is 0.00709 µM in [1]; 0.612 µM in assay [2]; 0.0103 µM in assay [3]; 0.00909 µM in assay [4]; 0.0154 µM in [5]; 0.0673 µM in assay [6]. The GI50 in assay [7] was 0.00722 µM; in assay [8], 0.0181 µM; in assay [9] it was 0.00739 µM; in [10], 0.00685 µM. Besides, the TGI was 0.0565 µM in assay [1]; above 25 µM in [2]; above 25 µM in [3]; above 9.55 µM in assay [4]; 22 µM in assay [5]; above 25 µM in assay [6]. In addition, the TGI in [7] was 0.0222 µM; in assay [8], above 25 µM; in assay [9], 3.64 µM; in assay [10] it was above 8.69 µM.

On to `Cc1nc2ccccn2c1NC(=O)NNC(=S)Nc1ccc(Br)cc1`, for which the GI50 in assay [1] was 29.4 µM; in assay [2], 38.4 µM; in [3], 32.1 µM; in [4], 27.4 µM; in assay [5], 33 µM; in assay [6], 37.8 µM. In addition, the GI50 is 38.6 µM in assay [7], 46.4 µM in [8], 34.1 µM in [9] and 40.1 µM in assay [10]. The TGI is 84.5 µM in [1]; above 100 µM in [2]; above 100 µM in assay [3]; 73.1 µM in assay [4]; 94 µM in [5]; above 100 µM in assay [6]. Further, the TGI in assay [7] was 94.8 µM; in assay [8], above 100 µM; in assay [9], above 100 µM; in assay [10], above 100 µM.
